{
  "source": "patent US8563559B2",
  "about": "(Rigel Pharmaceuticals, Inc., priority 2006, dated 2013)",
  "target": "T1, Axl (Homo sapiens, UniProt P30530)",
  "T1 construct": "endogenous in cells; host or cells: HeLa",
  "T1 sequence (P30530 26-894)": "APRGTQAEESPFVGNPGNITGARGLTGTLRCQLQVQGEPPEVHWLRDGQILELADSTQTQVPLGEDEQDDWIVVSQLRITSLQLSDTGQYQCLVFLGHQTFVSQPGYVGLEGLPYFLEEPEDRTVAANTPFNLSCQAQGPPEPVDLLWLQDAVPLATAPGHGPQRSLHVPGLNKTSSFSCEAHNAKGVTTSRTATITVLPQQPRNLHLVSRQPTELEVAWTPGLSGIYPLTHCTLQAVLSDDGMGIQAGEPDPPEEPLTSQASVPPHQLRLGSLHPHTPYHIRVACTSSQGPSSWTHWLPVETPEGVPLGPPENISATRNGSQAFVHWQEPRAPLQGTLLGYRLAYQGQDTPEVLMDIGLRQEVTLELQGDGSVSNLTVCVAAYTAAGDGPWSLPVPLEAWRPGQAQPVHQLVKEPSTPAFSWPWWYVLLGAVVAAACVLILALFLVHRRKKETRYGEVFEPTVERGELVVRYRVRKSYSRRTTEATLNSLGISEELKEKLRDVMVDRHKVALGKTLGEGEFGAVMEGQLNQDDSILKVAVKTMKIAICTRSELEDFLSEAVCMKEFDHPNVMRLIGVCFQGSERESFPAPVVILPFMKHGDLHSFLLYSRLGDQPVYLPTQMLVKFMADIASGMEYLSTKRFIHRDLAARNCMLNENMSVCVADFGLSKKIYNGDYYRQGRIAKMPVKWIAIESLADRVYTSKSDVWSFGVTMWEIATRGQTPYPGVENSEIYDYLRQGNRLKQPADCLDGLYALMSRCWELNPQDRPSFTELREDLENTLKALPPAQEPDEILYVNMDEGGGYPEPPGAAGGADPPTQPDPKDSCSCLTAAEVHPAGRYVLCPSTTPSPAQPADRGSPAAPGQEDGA",
  "test": "Phospho-AKT in-cell Western assay (inhibition of Axl activity)",
  "assay_type": "cell-based",
  "settings": "Hela cells, Axl antibody cross-linking stimulation, phospho-Akt chemiluminescence normalized to relative cell number",
  "in_short": "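HeLa cells were starved 24 h in 0.5% FCS with Axl/Fc 500 ng/mL, pre-treated with compound for 1 h at 37 °C, then stimulated 5 min by anti-Axl antibody cross-linking. Fixed cells were probed for phospho-AKT with an HRP-linked in-cell Western and read by chemiluminescence.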",
  "data": [
    {"smiles": "CNC(=O)[C@H]1C[C@H]2C[C@H](C2(C)C)[C@@]1(C)Nc1nc(Nc2ccc(N3CCN(CCO)CC3)cc2)ncc1C", "note": "[Compound 42, (1R,2R,3S,5R)-2-(5-methyl-2-(4-(4-(2-hydroxyethyl)piperazin-1-yl)phenylamino)pyrimidin-4-ylamino)-N,2,6,6-tetramethylbicyclo[3.1.1]heptane-3-carboxamide]", "values": [
      {"measurement": "IC50", "setting": "Table 1, formula (Ia)", "result": "1 to 10", "unit": "µM"}
    ]},
    {"smiles": "CNC(=O)[C@@H]1C[C@@H]2C[C@@H](C2(C)C)[C@]1(C)Nc1nc(Nc2ccc(OCCN3CCCC3)c(F)c2)ncc1Cl", "note": "[Compound 23, (1S,2S,3R,5S)-2-(5-chloro-2-(3-fluoro-4-(2-(pyrrolidin-1-yl)ethoxy)phenylamino)pyrimidin-4-ylamino)-N,2,6,6-tetramethylbicyclo[3.1.1]heptane-3-carboxamide]", "values": [
      {"measurement": "IC50", "setting": "Table 2, formula (Ib)", "result": "1 to 10", "unit": "µM"}
    ]},
    {"smiles": "CCN1CCN(c2cc(Nc3ncc(Cl)c(N[C@@]4(C)[C@@H](C(=O)NC)C[C@H]5C[C@@H]4C5(C)C)n3)ccc2Cl)CC1", "note": "[Compound 15, (1R,2R,3S,5R)-2-(5-chloro-2-(4-chloro-3-(4-ethylpiperazin-1-yl)phenylamino)pyrimidin-4-ylamino)-N,2,6,6-tetramethylbicyclo[3.1.1]heptane-3-carboxamide]", "values": [
      {"measurement": "IC50", "setting": "Table 1, formula (Ia)", "result": "1 to 10", "unit": "µM"}
    ]},
    {"smiles": "CNC(=O)[C@H]1C[C@H]2C[C@H](C2(C)C)[C@@]1(C)Nc1nc(Nc2ccc3c(c2)CCN3CCN(C)C)ncc1Cl", "note": "[Compound 27, (1R,2R,3S,5R)-2-(5-chloro-2-(1-(2-(dimethylamino)ethyl)indolin-5-ylamino)pyrimidin-4-ylamino)-N,2,6,6-tetramethylbicyclo[3.1.1]heptane-3-carboxamide]", "values": [
      {"measurement": "IC50", "setting": "Table 4, formula (Id)", "result": "< 1", "unit": "µM"}
    ]},
    {"smiles": "CNC(=O)[C@H]1C[C@H]2C[C@H](C2(C)C)[C@@]1(C)Nc1nc(Nc2ccc(N3CCC(F)(F)CC3)c(F)c2)ncc1F", "note": "[Compound 35, (1R,2R,3S,5R)-2-(5-fluoro-2-(3-fluoro-4-(4,4-difluoropiperidin-1-yl)phenylamino)pyrimidin-4-ylamino)-N,2,6,6-tetramethylbicyclo[3.1.1]heptane-3-carboxamide]", "values": [
      {"measurement": "IC50", "setting": "Table 1, formula (Ia)", "result": "> 20", "unit": "µM"}
    ]},
    {"smiles": "CCN(CC)CCN1CCOc2cc(Nc3ncc(F)c(N[C@@]4(C)[C@@H](C(=O)NC)C[C@H]5C[C@@H]4C5(C)C)n3)ccc21", "note": "[Compound 46, (1R,2R,3S,5R)-2-(5-fluoro-2-((3,4-dihydro-4-(2-(diethylamino)ethyl)-2H-benzo[b][1,4]oxazin-7-yl)amino)pyrimidin-4-ylamino)-N,2,6,6-tetramethylbicyclo[3.1.1]heptane-3-carboxamide]", "values": [
      {"measurement": "IC50", "setting": "Table 3, formula (Ic)", "result": "< 1", "unit": "µM"}
    ]},
    {"smiles": "CNC(=O)[C@H]1C[C@H]2C[C@H](C2(C)C)[C@@]1(C)Nc1nc(Nc2ccc3[nH]ccc3c2)ncc1Cl", "note": "[Compound 26, (1R,2R,3S,5R)-2-(2-(1H-indol-5-ylamino)-5-chloropyrimidin-4-ylamino)-N,2,6,6-tetramethylbicyclo[3.1.1]heptane-3-carboxamide]", "values": [
      {"measurement": "IC50", "setting": "Table 4, formula (Id)", "result": "1 to 10", "unit": "µM"}
    ]},
    {"smiles": "CNC(=O)[C@H]1C[C@H]2C[C@H](C2(C)C)[C@@]1(C)Nc1nc(Nc2ccc(N3CCC(N4CCC(C)CC4)CC3)c(F)c2)ncc1Cl", "note": "[Compound 54, (1R,2R,3S,5R)-2-(5-chloro-2-(3-fluoro-4-(4-(4-methylpiperidin-1-yl)piperidin-1-yl)phenylamino)pyrimidin-4-ylamino)-N,2,6,6-tetramethylbicyclo[3.1.1]heptane-3-carboxamide]", "values": [
      {"measurement": "IC50", "setting": "Table 1, formula (Ia)", "result": "< 1", "unit": "µM"}
    ]},
    {"smiles": "CCN(CC)CCN1CCOc2cc(Nc3ncc(Cl)c(N[C@@]4(C)[C@@H](C(=O)NC)C[C@H]5C[C@@H]4C5(C)C)n3)ccc21", "note": "[Compound 45, (1R,2R,3S,5R)-2-(5-chloro-2-((3,4-dihydro-4-(2-(diethylamino)ethyl)-2H-benzo[b][1,4]oxazin-7-yl)amino)pyrimidin-4-ylamino)-N,2,6,6-tetramethylbicyclo[3.1.1]heptane-3-carboxamide]", "values": [
      {"measurement": "IC50", "setting": "Table 3, formula (Ic)", "result": "< 1", "unit": "µM"}
    ]},
    {"smiles": "CCN(CC)CCN1CCOc2cc(Nc3ncc(C(F)(F)F)c(N[C@@]4(C)[C@@H](C(=O)NC)C[C@H]5C[C@@H]4C5(C)C)n3)ccc21", "note": "[Compound 53, (1R,2R,3S,5R)-2-(5-trifluoromethyl-2-((3,4-dihydro-4-(2-(diethylamino)ethyl)-2H-benzo[b][1,4]oxazin-7-yl)-amino)pyrimidin-4-ylamino)-N,2,6,6-tetramethylbicyclo[3.1.1]heptane-3-carboxamide]", "values": [
      {"measurement": "IC50", "setting": "Table 3, formula (Ic)", "result": "< 1", "unit": "µM"}
    ]}
  ]
}
